Laboratory results: ChEMBL document CHEMBL1201862, “PubChem BioAssay data set” (2004)
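Dose response: 5 concentrations. Exposure: 48 h. Format: 96-well plates. Endpoint: linear interpolation; highest concentration if not reached. Here, GI50 denotes the concentration required for 50% inhibition of growth.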 Calls of active or inactive are those of the source. Rule as the data show it: active = GI50 up to about 1.1 µM and inactive = higher.

Assays:
Test in all cases: inhibition of tumour cell growth, NCI panel, 48 h
A549 = test system: A549
ACHN = test system: ACHN
EKVX = test system: EKVX
HCC 2998 = test system: HCC 2998
HCT-116 = test system: HCT-116
HL-60 = test system: HL-60
HT-29 = test system: HT-29
LOX IMVI = test system: LOX IMVI
MOLT-4 = test system: MOLT-4
Malme-3M = test system: Malme-3M
NCI-H522 = test system: NCI-H522
SK-MEL-28 = test system: SK-MEL-28
SN12C = test system: SN12C
SW-620 = test system: SW-620
T47D = test system: T47D
UACC-257 = test system: UACC-257
OVCAR-4 = test system: OVCAR-4
U-251 = test system: U-251
RXF 393 = test system: RXF 393
HOP-92 = test system: HOP-92

Measured: GI50

O=S(=O)(NC1CCCCC1)c1ccc2c(c1)OCCOCCOCCOCCO2
inactive: A549 > 100 µM | ACHN > 100 µM | EKVX > 100 µM | HCC 2998 > 100 µM | HCT-116 > 100 µM | HL-60 > 100 µM | HT-29 > 100 µM | LOX IMVI > 100 µM | MOLT-4 > 100 µM | Malme-3M > 100 µM | NCI-H522 > 100 µM | SK-MEL-28 > 100 µM | SN12C > 100 µM | SW-620 > 100 µM | T47D > 100 µM | UACC-257 > 100 µM

CN(C)CCNC(=O)c1cccc2c(NC(CCCNC(=N)N)C(=O)O)c3ccccc3[n+](C)c12 (centres undefined)
inactive: A549 78.5 µM | ACHN 68.7 µM | EKVX > 100 µM | HCC 2998 69.5 µM | HCT-116 45.6 µM | HT-29 > 100 µM | LOX IMVI 66.1 µM | MOLT-4 47.8 µM | Malme-3M 86.7 µM | OVCAR-4 > 100 µM | SK-MEL-28 > 100 µM | SN12C 32.4 µM | SW-620 53.5 µM | T47D 80.9 µM | U-251 > 100 µM | UACC-257 > 100 µM

COc1cc([C@@H]2c3cc4c(cc3[C@@H](/N=C/c3ccc(C(=O)O[C@H]5C[C@H]6OC[C@@]6(OC(C)=O)[C@H]6[C@H](OC(=O)c7ccccc7)[C@]7(O)C[C@H](OC(=O)[C@H](OC(=O)c8ccc(/C=N/[C@@H]9c%10cc%11c(cc%10[C@@H](c%10cc(OC)c(O)c(OC)c%10)[C@H]%10C(=O)OC[C@@H]%109)OCO%11)cc8)[C@@H](NC(=O)c8ccccc8)c8ccccc8)C(C)=C([C@@H](OC(C)=O)C(=O)[C@]56C)C7(C)C)cc3)C3COC(=O)C32)OCO4)cc(C)c1O (some centres undefined)
inactive: A549 13.7 µM | ACHN 20.8 µM | EKVX 14.5 µM | HCC 2998 > 50 µM | HCT-116 9.08 µM | HL-60 > 13.9 µM | HT-29 10.9 µM | LOX IMVI 22.9 µM | MOLT-4 16.3 µM | Malme-3M > 24 µM | NCI-H522 9.06 µM | OVCAR-4 > 29.6 µM | RXF 393 2.96 µM | SK-MEL-28 > 18.1 µM | SN12C 18.8 µM | SW-620 13.4 µM | T47D > 50 µM | U-251 13.3 µM | UACC-257 26.2 µM

Cc1ccc(C)n1-c1ccccc1C1SCCCS1
inactive: A549 98.9 µM | ACHN > 100 µM | EKVX > 100 µM | HCC 2998 > 100 µM | HCT-116 > 100 µM | HL-60 16.9 µM | HOP-92 > 100 µM | HT-29 53.3 µM | LOX IMVI > 100 µM | MOLT-4 > 100 µM | Malme-3M > 100 µM | NCI-H522 > 100 µM | OVCAR-4 > 100 µM | RXF 393 > 100 µM | SK-MEL-28 > 100 µM | SN12C > 100 µM | SW-620 > 100 µM | U-251 > 100 µM | UACC-257 > 100 µM

Cc1ccc([S+]([O-])c2ccccc2[N+](=O)[O-])cc1 (centres undefined)
inactive: A549 70.1 µM | ACHN > 100 µM | HCC 2998 78.9 µM | HCT-116 > 10 µM | HL-60 29.1 µM | HOP-92 60 µM | HT-29 69.3 µM | LOX IMVI 38.5 µM | MOLT-4 41.3 µM | Malme-3M > 100 µM | NCI-H522 33.3 µM | OVCAR-4 39.1 µM | RXF 393 > 100 µM | SK-MEL-28 42.2 µM | SN12C 72.6 µM | SW-620 > 100 µM | U-251 48.8 µM | UACC-257 > 100 µM

C#CCn1c(=O)[nH]c(=O)c2cccnc21
inactive: A549 > 100 µM | ACHN > 100 µM | HCC 2998 > 100 µM | HCT-116 > 100 µM | HL-60 > 100 µM | HOP-92 > 100 µM | LOX IMVI > 100 µM | MOLT-4 > 100 µM | Malme-3M > 100 µM | NCI-H522 > 100 µM | OVCAR-4 > 100 µM | RXF 393 > 100 µM | SK-MEL-28 > 100 µM | SN12C > 100 µM | SW-620 > 100 µM | U-251 > 100 µM | UACC-257 > 100 µM

c1ccc2c(c1)C1=NCCN1c1ccccc1-2
inactive: A549 3.97 µM | ACHN 2.11 µM | EKVX 4.54 µM | HCC 2998 4.46 µM | HCT-116 1.23 µM | HL-60 2.42 µM | HOP-92 4.45 µM | HT-29 2.41 µM | LOX IMVI 2.95 µM | MOLT-4 1.85 µM | Malme-3M 2.64 µM | NCI-H522 1.45 µM | OVCAR-4 2.91 µM | RXF 393 1.56 µM | SK-MEL-28 3.91 µM | SN12C 2.45 µM | SW-620 2.37 µM | U-251 3.15 µM | UACC-257 2.7 µM

O=C(O)C(CS)Nc1c2ccccc2nc2ccccc12 (centres undefined)
inactive: A549 67.5 µM | ACHN 38.3 µM | EKVX 42.7 µM | HCC 2998 82 µM | HCT-116 > 10 µM | HL-60 80.4 µM | HOP-92 49.7 µM | HT-29 46.6 µM | LOX IMVI 40.6 µM | MOLT-4 38.3 µM | Malme-3M 54.3 µM | NCI-H522 29.1 µM | OVCAR-4 19.7 µM | RXF 393 > 100 µM | SK-MEL-28 > 100 µM | SN12C 51.1 µM | SW-620 54.1 µM | U-251 > 100 µM | UACC-257 58.5 µM

O=C1CCCC(O)=C1SC1=C(O)CCCC1=O
inactive: A549 70.3 µM | EKVX > 100 µM | HCC 2998 70.1 µM | HCT-116 76 µM | HL-60 > 100 µM | HOP-92 > 100 µM | HT-29 72.8 µM | LOX IMVI > 100 µM | MOLT-4 > 100 µM | Malme-3M > 100 µM | NCI-H522 > 100 µM | OVCAR-4 > 100 µM | RXF 393 > 100 µM | SK-MEL-28 69.2 µM | SN12C 74 µM | SW-620 > 100 µM | U-251 > 100 µM | UACC-257 > 100 µM

COc1ccc2c(c1)CCc1c(C(C)=O)c3ccccc3n1C2
inactive: A549 11.2 µM | ACHN 12 µM | HCC 2998 33.7 µM | HCT-116 25.8 µM | HL-60 11.5 µM | HOP-92 20.3 µM | HT-29 > 100 µM | LOX IMVI 41 µM | MOLT-4 13.4 µM | Malme-3M 18.1 µM | NCI-H522 19.9 µM | OVCAR-4 28.3 µM | RXF 393 22.8 µM | SK-MEL-28 60.3 µM | SN12C 49.5 µM | SW-620 > 100 µM | U-251 20.2 µM | UACC-257 15.3 µM

O=C(/C=C/c1ccc(Cl)cc1)c1cccs1
inactive: A549 29.1 µM | ACHN 20 µM | EKVX 26.6 µM | HCC 2998 18.6 µM | HCT-116 14.8 µM | HL-60 7.19 µM | HT-29 16.5 µM | LOX IMVI 11.4 µM | MOLT-4 15.7 µM | Malme-3M 16.6 µM | OVCAR-4 > 10 µM | SK-MEL-28 26.2 µM | SN12C 16.5 µM | SW-620 12.9 µM | T47D 21 µM | U-251 16 µM | UACC-257 19.6 µM

CS(=O)(=O)C1S(=O)(=O)OCCOS1(=O)=O
inactive: A549 > 100 µM | ACHN > 100 µM | EKVX > 100 µM | HCC 2998 > 100 µM | HCT-116 > 100 µM | HL-60 > 100 µM | HOP-92 > 100 µM | HT-29 > 100 µM | LOX IMVI > 100 µM | MOLT-4 > 100 µM | Malme-3M > 100 µM | NCI-H522 > 100 µM | OVCAR-4 > 100 µM | RXF 393 > 100 µM | SK-MEL-28 > 100 µM | SN12C > 100 µM | SW-620 > 100 µM | U-251 > 100 µM | UACC-257 > 100 µM

O=C1CCC2(CC1)Cc1ccccc1C2O (centres undefined)
inactive: A549 > 100 µM | ACHN > 100 µM | EKVX > 100 µM | HCC 2998 > 100 µM | HCT-116 > 100 µM | HL-60 > 100 µM | HT-29 > 100 µM | LOX IMVI > 100 µM | MOLT-4 > 100 µM | Malme-3M > 100 µM | NCI-H522 > 100 µM | OVCAR-4 > 100 µM | SK-MEL-28 > 100 µM | SN12C > 100 µM | SW-620 > 100 µM | T47D > 100 µM | U-251 > 100 µM | UACC-257 > 100 µM

Cc1cn(C2CC(O)C(COC(=O)c3ccccc3)O2)c(=O)[nH]c1=O (centres undefined)
inactive: A549 > 100 µM | ACHN > 100 µM | HCC 2998 > 100 µM | HCT-116 > 100 µM | HL-60 > 100 µM | HOP-92 > 100 µM | HT-29 > 100 µM | LOX IMVI > 100 µM | MOLT-4 > 100 µM | Malme-3M > 100 µM | NCI-H522 > 100 µM | OVCAR-4 > 100 µM | RXF 393 > 100 µM | SK-MEL-28 > 100 µM | SN12C > 100 µM | SW-620 > 100 µM | U-251 > 100 µM | UACC-257 > 100 µM

Cn1c(=O)c2nc3sc4ccccc4c(=N)n3c2n(C)c1=O
inactive: A549 > 100 µM | ACHN > 100 µM | EKVX > 100 µM | HCC 2998 > 100 µM | HL-60 > 100 µM | HOP-92 > 100 µM | HT-29 > 100 µM | LOX IMVI > 100 µM | MOLT-4 > 100 µM | Malme-3M > 100 µM | NCI-H522 > 100 µM | OVCAR-4 > 100 µM | RXF 393 > 100 µM | SK-MEL-28 > 100 µM | SN12C > 100 µM | SW-620 > 100 µM | U-251 > 10 µM | UACC-257 > 100 µM
